Test results as given in paper PMC10831936 (iScience, 2024).
pEC50, pIC50: −log10 of the molar value. Entries after “also recorded” stand apart in the source; their conditions may differ. Like-named read-outs stand apart in the source and are kept apart here.

Assays:
EGFR EGR1p = assay: ERBBprofiler barcoded EGR1p pathway sensor, EGFR co-transfected; details: Rattus norvegicus, PC-12, 6 h, read-out: EGFR EGR1p IC50
ERBB2/3 EGR1p = assay: ERBBprofiler barcoded EGR1p pathway sensor, ERBB2/3 co-transfected; details: Rattus norvegicus, PC-12, 6 h, read-out: ERBB2/3 EGR1p IC50
ERBB4 NFAT = assay: ERBBprofiler barcoded NFAT pathway sensor, ERBB4 co-transfected; format: cell-based, Rattus norvegicus; details: PC12 cells; constant EGF 30 ng/mL, EGFld 10 ng/mL, serotonin 1 μM; 6 h; barcode readout; relative IC50
ERBB4 [1] = system: ERBB4; set-up: method as in Nam et al., 2011; details: tyrosine kinase assay kit (Panvera); ref Nam et al., 2011; read-out: IC50_Literature, ERBB4; cited from earlier work
[2] = system: ERBB receptors, HTR2A, and downstream signaling pathways; assay: ERBBprofiler multiplexed barcoded assay, overall statements across all receptor batches and sensors; details: for CRE sensor response at high compound concentration (barcoded): 10 μM compound, PC12 cells, stimulation mix
HTR2A = HTR2A (Homo sapiens, UniProt P28223); assay: ERBBprofiler barcoded split TEV assay, HTR2A
ERBB4 EGR1p = assay: ERBBprofiler barcoded EGR1p pathway sensor, ERBB4 co-transfected; details: Rattus norvegicus, PC-12, 6 h, read-out: ERBB4 EGR1p IC50
HTR2A EGR1p = assay: ERBBprofiler barcoded EGR1p pathway sensor, HTR2A co-transfected; details: Rattus norvegicus, PC-12, 6 h, read-out: HTR2A EGR1p IC50
NCI-H1975 cells = system: NCI-H1975 cells; set-up: method as in Dong et al., 2019; details: growth of NCI-H1975 cells; ref Dong et al., 2019; read-out: IC50_Literature, EGFR; cited from earlier work
CRE sensor = CRE sensor only luciferase assay in PC12 cells; format: cell-based, Rattus norvegicus
Protocol: 50,000 PC12 cells were seeded per 96-well onto poly-L-lysin (PLL)-coated plates and transfected the following day (day in vitro 1, DIV1) with assay plasmids using Lipofectamine 3000 (Thermo Fisher Scientific). […] For pathway assays, the receptor plasmids (15 ng/well) and pathway reporter plasmids (15 ng/well) pEGR1p-luc2 for monitoring MAPK signaling, pCRE-CMVmin-luc2 for monitoring cAMP/Ca^2+ signaling, or p6xNFAT-CMVmin-luc2 for Ca^2+ signaling were used. Transient transfections were conducted according to the manufacturer’s instructions. On DIV2, cells were starved in medium containing 1% FCS for 16 h. […] In the case of antagonist assays, compounds were added at increasing doses together with the stimulus. Cells were lysed in 1x passive lysis buffer (Promega) and subjected to a firefly luciferase assay using a self-made substrate for firefly luciferase.[100] Luciferase activity was analyzed in a Mithras LB 940 Multimode Microplate Reader (Berthold Technologies). All assays were run in 96-well plates using six replicates per condition.

calcium = assay: Fluo-4 AM calcium assay in PC12 cells; format: cell-based, Rattus norvegicus; details: stimulation mix
Protocol: On DIV2, cells were pre-equilibrated in 10 μM Fluo-4 a.m. (Thermo Fisher Scientific, F14201) away from light for 1 h at 37°C. Next, cells were incubated in the indicator-free starvation medium to allow de-esterification for 20 min away from light at 37°C. Background fluorescence was then measured using the BMG POLARstar Optima Microplate Reader prior to adding the treatments and continuously measuring the fluorescence for the next 30 min. Fluorescence was measured using the bottom optics.

HTR2A NFAT = assay: ERBBprofiler barcoded NFAT pathway sensor, HTR2A co-transfected; details: Rattus norvegicus, PC-12, 6 h, read-out: HTR2A NFAT IC50
[3] = system: Calu-3 and NCI-H1781 cells; set-up: method as in Dong et al., 2019; details: growth of Calu-3 and NCI-H1781 cells; ref Dong et al., 2019; read-out: IC50_Literature, ERBB2; cited from earlier work
ERBB2/3 = ERBB2/3 (Homo sapiens, UniProt P04626+P21860); assay: ERBBprofiler barcoded split TEV assay, ERBB2/3
EGFR NFAT = assay: ERBBprofiler barcoded NFAT pathway sensor, EGFR co-transfected; format: cell-based, Rattus norvegicus
ERBB4 [4] = target: ERBB4 (Homo sapiens, UniProt Q15303); assay: ERBBprofiler barcoded split TEV assay, ERBB4; details: ERBB4 UAS (split TEV) IC50, PC12 cells; constant EGF 30 ng/mL, EGFld 10 ng/mL, serotonin 1 μM; 6 h; barcode readout; relative IC50
cAMP = assay: GloSensor cAMP assay in PC12 cells; format: cell-based, Rattus norvegicus
Protocol: The GloSensor cAMP assay was conducted with the same parameters (50,000 PC12 cells per 96-well) as described above for the firefly luciferase assay, with however, three differences. Specifically, (1) 30 ng/well of the pGloSensor-22F plasmid (Promega, E2301) was used for transfection, and (2) on DIV3, cells were equilibrated in assay medium containing a 2% v/v dilution of D-luciferin (Synchem, bc219) for 2 h at 37°C before (3) the treatment of compounds for 15 min and lysis in 1x passive lysis buffer (Promega) and luciferase activity measurement.

ERBB2 = system: ERBB2; set-up: method as in Hasako et al., 2018; details: biochemical kinase activity assay by Carna Biosciences; ref Hasako et al., 2018; read-out: IC50_Literature, ERBB2; cited from earlier work
ERBB2/3 NFAT = assay: ERBBprofiler barcoded NFAT pathway sensor, ERBB2/3 co-transfected; format: cell-based, Rattus norvegicus; details: PC12 cells; constant EGF 30 ng/mL, EGFld 10 ng/mL, serotonin 1 μM; 6 h; barcode readout; relative IC50
EGFR [5] = system: EGFR; set-up: method as in Hasako et al., 2018; details: phospho-WB in NIH/3T3 cell lines; ref Hasako et al., 2018; read-out: IC50_Literature, EGFR; cited from earlier work
ERBB4 [6] = system: ERBB4; set-up: method as in Hasako et al., 2018; details: biochemical kinase activity assay by Carna Biosciences; ref Hasako et al., 2018; read-out: IC50_Literature, ERBB4; cited from earlier work
EGFR [7] = target: EGFR (Homo sapiens, UniProt P00533); assay: ERBBprofiler barcoded split TEV assay, EGFR

HTR2A, sequence (P28223 whole entry): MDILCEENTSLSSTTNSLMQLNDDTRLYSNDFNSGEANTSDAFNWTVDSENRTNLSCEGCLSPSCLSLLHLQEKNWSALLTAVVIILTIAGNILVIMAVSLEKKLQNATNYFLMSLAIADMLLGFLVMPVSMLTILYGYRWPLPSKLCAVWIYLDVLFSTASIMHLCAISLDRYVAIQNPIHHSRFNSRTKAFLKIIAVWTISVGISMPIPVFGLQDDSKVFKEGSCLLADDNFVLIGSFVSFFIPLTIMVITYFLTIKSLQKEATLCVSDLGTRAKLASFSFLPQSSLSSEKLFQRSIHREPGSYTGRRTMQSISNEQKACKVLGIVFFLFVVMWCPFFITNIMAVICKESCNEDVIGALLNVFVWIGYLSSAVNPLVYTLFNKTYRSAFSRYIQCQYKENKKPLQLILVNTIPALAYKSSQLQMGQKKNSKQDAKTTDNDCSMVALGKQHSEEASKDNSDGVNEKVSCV
ERBB4 (Homo sapiens, UniProt Q15303), sequence (Q15303 26-1308): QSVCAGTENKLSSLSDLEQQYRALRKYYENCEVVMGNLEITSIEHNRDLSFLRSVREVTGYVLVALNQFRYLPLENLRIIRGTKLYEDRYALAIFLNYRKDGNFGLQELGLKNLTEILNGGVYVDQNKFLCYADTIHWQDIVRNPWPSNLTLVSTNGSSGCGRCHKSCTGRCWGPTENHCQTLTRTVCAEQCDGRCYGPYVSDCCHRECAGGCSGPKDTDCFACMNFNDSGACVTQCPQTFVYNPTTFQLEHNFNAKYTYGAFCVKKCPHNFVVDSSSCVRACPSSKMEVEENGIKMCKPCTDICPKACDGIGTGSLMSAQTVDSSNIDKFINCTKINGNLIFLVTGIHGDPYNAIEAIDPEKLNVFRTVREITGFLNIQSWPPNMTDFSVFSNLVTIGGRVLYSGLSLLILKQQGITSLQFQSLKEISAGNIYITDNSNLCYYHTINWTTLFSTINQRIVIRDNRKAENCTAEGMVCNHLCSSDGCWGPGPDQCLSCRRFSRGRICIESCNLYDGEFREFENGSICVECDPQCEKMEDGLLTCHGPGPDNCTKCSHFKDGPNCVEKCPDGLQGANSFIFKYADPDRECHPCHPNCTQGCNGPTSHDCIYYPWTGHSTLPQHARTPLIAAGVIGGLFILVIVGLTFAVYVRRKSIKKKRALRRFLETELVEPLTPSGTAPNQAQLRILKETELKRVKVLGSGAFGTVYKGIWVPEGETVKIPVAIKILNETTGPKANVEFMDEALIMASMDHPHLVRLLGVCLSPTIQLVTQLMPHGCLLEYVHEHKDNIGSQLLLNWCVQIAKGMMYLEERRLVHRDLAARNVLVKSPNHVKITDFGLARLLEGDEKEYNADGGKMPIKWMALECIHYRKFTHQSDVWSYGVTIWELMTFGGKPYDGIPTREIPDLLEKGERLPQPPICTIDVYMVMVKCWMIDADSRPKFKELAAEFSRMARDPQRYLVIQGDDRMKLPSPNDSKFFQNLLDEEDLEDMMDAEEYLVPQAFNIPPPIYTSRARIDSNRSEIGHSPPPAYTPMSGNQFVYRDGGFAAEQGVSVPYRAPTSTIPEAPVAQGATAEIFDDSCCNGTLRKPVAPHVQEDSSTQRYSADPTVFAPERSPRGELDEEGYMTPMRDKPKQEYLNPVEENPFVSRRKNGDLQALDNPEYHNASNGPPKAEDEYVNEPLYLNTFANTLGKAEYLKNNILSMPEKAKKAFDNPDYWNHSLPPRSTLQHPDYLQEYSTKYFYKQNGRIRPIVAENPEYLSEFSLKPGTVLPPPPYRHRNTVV
ERBB2/3, sequence (P04626 23-1255): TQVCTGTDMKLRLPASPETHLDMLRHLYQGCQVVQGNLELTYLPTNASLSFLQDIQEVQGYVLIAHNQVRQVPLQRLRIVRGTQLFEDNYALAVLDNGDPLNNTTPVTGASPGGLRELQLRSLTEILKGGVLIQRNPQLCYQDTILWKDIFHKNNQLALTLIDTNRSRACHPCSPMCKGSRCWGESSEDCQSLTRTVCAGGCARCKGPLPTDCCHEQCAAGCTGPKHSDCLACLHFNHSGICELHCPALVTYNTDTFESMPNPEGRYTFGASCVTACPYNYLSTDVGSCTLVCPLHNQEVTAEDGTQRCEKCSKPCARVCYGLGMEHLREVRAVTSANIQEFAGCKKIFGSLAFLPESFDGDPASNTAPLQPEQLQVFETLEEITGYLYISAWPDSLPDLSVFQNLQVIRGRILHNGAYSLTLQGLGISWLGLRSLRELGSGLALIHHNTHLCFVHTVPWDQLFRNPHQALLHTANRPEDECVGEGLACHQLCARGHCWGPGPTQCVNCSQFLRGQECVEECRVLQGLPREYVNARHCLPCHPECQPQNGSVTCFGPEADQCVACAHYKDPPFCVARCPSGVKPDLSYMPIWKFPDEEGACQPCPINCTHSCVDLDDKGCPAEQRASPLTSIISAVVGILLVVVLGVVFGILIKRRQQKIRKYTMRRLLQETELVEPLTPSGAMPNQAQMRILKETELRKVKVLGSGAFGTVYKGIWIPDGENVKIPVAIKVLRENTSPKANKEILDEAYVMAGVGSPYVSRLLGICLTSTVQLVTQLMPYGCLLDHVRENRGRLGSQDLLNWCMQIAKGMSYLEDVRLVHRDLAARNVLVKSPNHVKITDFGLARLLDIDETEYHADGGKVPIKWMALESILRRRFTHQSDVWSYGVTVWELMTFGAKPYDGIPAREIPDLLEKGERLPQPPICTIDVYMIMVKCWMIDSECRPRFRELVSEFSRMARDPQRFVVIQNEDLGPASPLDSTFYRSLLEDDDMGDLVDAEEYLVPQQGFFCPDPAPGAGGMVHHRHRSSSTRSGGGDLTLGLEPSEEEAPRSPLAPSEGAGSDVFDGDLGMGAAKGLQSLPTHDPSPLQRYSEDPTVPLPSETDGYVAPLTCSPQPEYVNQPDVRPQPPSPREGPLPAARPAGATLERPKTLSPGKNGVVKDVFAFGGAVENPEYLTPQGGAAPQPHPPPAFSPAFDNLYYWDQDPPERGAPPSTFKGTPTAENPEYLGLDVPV
ERBB2/3, sequence (P21860 20-1342): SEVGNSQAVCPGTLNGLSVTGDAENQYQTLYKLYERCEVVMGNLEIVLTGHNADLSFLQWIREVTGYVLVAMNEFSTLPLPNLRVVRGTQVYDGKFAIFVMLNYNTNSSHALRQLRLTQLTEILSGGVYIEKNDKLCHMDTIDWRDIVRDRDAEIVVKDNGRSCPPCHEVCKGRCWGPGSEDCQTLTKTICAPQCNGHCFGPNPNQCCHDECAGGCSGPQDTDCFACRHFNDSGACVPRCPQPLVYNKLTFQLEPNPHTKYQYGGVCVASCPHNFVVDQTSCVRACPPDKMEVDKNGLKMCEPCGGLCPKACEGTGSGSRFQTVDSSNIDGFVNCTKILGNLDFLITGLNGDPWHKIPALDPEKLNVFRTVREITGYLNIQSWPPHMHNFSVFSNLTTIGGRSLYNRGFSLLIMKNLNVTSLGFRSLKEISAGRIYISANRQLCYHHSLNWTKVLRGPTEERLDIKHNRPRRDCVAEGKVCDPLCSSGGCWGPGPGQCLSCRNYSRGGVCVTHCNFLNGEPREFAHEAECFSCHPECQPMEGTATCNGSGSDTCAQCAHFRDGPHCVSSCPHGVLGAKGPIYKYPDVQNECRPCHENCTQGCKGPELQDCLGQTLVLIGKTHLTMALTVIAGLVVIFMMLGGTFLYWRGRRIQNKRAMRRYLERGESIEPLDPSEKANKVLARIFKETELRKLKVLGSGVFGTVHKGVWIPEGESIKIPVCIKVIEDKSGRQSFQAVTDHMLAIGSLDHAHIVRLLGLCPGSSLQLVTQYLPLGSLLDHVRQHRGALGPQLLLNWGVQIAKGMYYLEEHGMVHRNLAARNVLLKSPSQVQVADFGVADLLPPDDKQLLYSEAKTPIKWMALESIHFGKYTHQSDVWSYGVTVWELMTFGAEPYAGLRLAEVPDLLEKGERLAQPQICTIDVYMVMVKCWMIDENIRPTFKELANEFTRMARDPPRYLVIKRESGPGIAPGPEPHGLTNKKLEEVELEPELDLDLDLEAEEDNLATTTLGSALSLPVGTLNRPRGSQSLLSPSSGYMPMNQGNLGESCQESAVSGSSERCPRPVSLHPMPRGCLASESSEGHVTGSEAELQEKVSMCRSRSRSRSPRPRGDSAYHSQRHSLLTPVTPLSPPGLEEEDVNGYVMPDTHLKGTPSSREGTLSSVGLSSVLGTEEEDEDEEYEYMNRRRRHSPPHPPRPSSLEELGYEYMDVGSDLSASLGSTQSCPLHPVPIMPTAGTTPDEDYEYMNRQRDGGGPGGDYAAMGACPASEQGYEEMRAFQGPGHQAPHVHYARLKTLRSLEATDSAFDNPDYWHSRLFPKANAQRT

Compound | pIC50 (EGFR EGR1p) | pIC50 (ERBB2/3 EGR1p) | ERBB4 NFAT IC50 (ERBB4 NFAT) | CRE sensor response at high compound concentration (barcoded) [2] | pIC50 (HTR2A) | pIC50 (ERBB4 EGR1p) | pIC50 (HTR2A EGR1p) | pIC50 (HTR2A NFAT) | pIC50 (ERBB2/3) | pIC50 (ERBB4 [4]) | also measured
C=CC(=O)N1CCC(Oc2cc3c(Nc4ccc(Cl)c(Cl)c4F)ncnc3cc2OC)CC1 [Poziotinib, Poziotinib (HM781-36B)] | 9.05 | 9.10 | no effect (EGFR, ERBB2/3, ERBB4) - 0.016 µM (HTR2A) | upregulation of the CRE sensor; also recorded: upregulated CRE sensor response | 8.34 | 9.06 | 8.94 | 7.80 | 8.58 | 8.51 | pIC50 (ERBB4 [1]): 7.63; pIC50 (NCI-H1975 cells): 8.06 to 8.77; effect on CRE sensor activity (luciferase), in words (CRE sensor; PC12 cells, CRE sensor only, stimulation mix): CRE sensor activation at high compound concentrations; pEC50 (CRE sensor; Rattus norvegicus, PC-12): 5.79; effect on calcium levels (Fluo-4 AM) (calcium): but not calcium levels; pIC50 [3]: 8.21 to 8.60; EGFR NFAT IC50 (EGFR NFAT; PC12 cells, constant EGF 30 ng/mL, EGFld 10 ng/mL, serotonin 1 μM, 6 h, barcode readout, relative IC50): no effect (EGFR, ERBB2/3, ERBB4) - 0.016 µM (HTR2A); effect on cAMP levels (GloSensor) (cAMP): increase of cAMP; pEC50 (cAMP; Rattus norvegicus, PC-12, 0.25 h, constant stimulation mix, 15 min, cAMP increase): 5.54; compound concentration resulting in elevated cAMP (GloSensor) (cAMP; stimulation mix): ≥ 3 µM
C=CC(=O)N[C@H]1C=C(C)c2c(-c3cnc4ccccc4c3)c3c(N)ncnc3n2C1 [TAS6417, TAS6417 (Zipalertinib)] | 7.02 | 6.57 | no effect (EGFR, ERBB2/3, ERBB4) - 0.848 µM (HTR2A, small effect) | upregulated CRE sensor response | 6.35 | 7.26 | 6.71 | 6.07 | 6.69 | 7.04 | pIC50 (ERBB2): 6.41; IC50_ERBBpro, cAMP/Ca2+ (CRE sensor) ([2]; ERBBprofiler, no receptor named in the cell): no effect; ERBB2/3 NFAT IC50 (ERBB2/3 NFAT): no effect (EGFR, ERBB2/3, ERBB4) - 0.848 µM (HTR2A, small effect); pIC50 (EGFR [5]): 6.43; pIC50 (ERBB4 [6]): 8.40; pIC50 (EGFR [7]): 7.04; EGFR NFAT IC50 (EGFR NFAT): no effect (EGFR, ERBB2/3, ERBB4) - 0.848 µM (HTR2A, small effect)
